Data: BindingDB's records for doi:10.1021/jm00038a005 (Bristol-Myers Squibb, 1994)

Molecular target: T1, Dimer of Gag-Pol polyprotein [489-587] (Human immunodeficiency virus 1, UniProt P12497)
T1 construct: 489-587
Assay: Protease Inhibition Assay
Conditions: pH 5.5; 37 °C
Experimental: Sensitivity of HIV-1 protease activity to protease inhibitors was determined by a peptide substrate cleavage assay. Protease products were analyzed on a reverse-phase high-pressure liquid chromatograph.

`CC(C)(C)OC(=O)N[C@@H](CC1CCCCC1)[C@H](O)CNC[C@@H](O)[C@H](CC1CCCCC1)NC(=O)OC(C)(C)C` [(R,S)-[Iminobis[1-(cyclohexylmethyl)-2-hydroxy-3,1-propanediyl]]bis[carbamic acid], Bis(1,1-dimethylethylester)] was tested, and the IC50 was 800 nM.
In the case of `CC(C)(C)OC(=O)N[C@@H](Cc1ccccc1)[C@H](O)CNC[C@@H](O)[C@H](Cc1ccc(O)cc1)NC(=O)OC(C)(C)C` [BMS-186318 analog 4], the IC50 is reported as 100 nM.
With `CC(C)(C)OC(=O)N[C@@H](CCc1ccccc1)[C@H](O)CNC[C@@H](O)[C@H](Cc1ccccc1)NC(=O)OC(C)(C)C` [tert-butyl N-[(2S,3R)-4-{[(2R,3S)-3-{[(tert-butoxy)carbonyl]amino}-2-hydroxy-5-phenylpentyl]amino}-3-hydroxy-1-phenylbutan-2-yl]carbamate] the IC50 was 500 nM.
With `CC(C)(C)OC(=O)N[C@@H](Cc1ccccc1)[C@H](O)CNC[C@@H](O)[C@H](Cc1ccccc1)NC(=O)OC(C)(C)C` [tert-butyl N-[(2S,3R)-4-{[(2R,3S)-3-{[(tert-butoxy)carbonyl]amino}-2-hydroxy-4-phenylbutyl]amino}-3-hydroxy-1-phenylbutan-2-yl]carbamate] the Ki was 100 nM.
